Values of other authors as cited in patent US11439715B2, “Compositions and methods to detect GLUA1 in brain and to identify the presence of GLUA1-mediated post-traumatic stress disorder and other neurological disorders” (Neurovation Labs, Inc., priority 2017, dated 2022).
Entries after “also recorded” stand apart in the source; their conditions may differ. Like-named read-outs stand apart in the source and are kept apart here.

Experiments:
[1] = system: Stress-Enhanced Fear Learning (SEFL), a rodent model of PTSD
GluA1 = settings: stressed rats, metyrapone given before the trauma, measured three weeks after the trauma
GluA2 = settings: stressed and unstressed rats, measured three weeks after the trauma
GluN1 = settings: stressed and unstressed rats, measured three weeks after the trauma

Br.C[N+](C)(C)CCCCCNCC12CC3CC(CC(C3)C1)C2.[Br-] [IEM-1460, N,N,H,-Trimethyl-5-[(tricyclo[3.3.1.13,7]dec-1-ylmethyl)amino]-1-pentanaminiumbromide hydrobromide]
percent freezing in Context B on Day 3 (sensitized fear, SEFL) ([1]; intra-BLA infusion post-trauma, compared with stressed controls (ACSF or MSO), hydrobromide): significantly reduces freezing in Context B; also recorded: attenuate SEFL

CC(C)(C(=O)c1cccnc1)c1cccnc1 [Metyrapone]
GluA1 protein levels in the BLA (GluA1:GAPDH optical density ratio) (GluA1): prevented GluA1 increases | GluA1 protein levels in the BLA (GluA1:GAPDH optical density ratio) (GluA1; listed as metyrapone): significantly higher in stressed rats than in unstressed rats and metyrapone-treated rats | GluA2 levels in the BLA (GluA2:GAPDH optical density ratio) (GluA2): Neither stress nor metyrapone had an effect on GluA2 levels | SEFL (stress-enhanced fear learning) ([1]; metyrapone given before the trauma): effectively preventing SEFL | GluN1 levels in the BLA (GluN1:GAPDH optical density ratio) (GluN1): Neither stress nor metyrapone had an effect on GluN1 levels
